What was measured:
[1] = system: human L3.6pl pancreatic cancer cells; assay: Orthotopic implantation of L3.6pl pancreatic cancer cells into nude mice; conditions: Study 3, GEM 100 mg/kg 2×/wk ip, (S,S)-(HO)2DEHSPM 25 mg/kg 3×/wk
Procedure: These studies examined the anti-neoplastic effects of subcutaneous administration of (S,S)-(HO)2DEHSPM following orthotopic implantation of human L3.6pl pancreatic cancer cells into the pancreas of nude mice.
L3.6pl cells were injected into the pancreas of nude mice; treatment was initiated by group (n=10/group planned) 7-10 days later following establishment of tumors:
Study 1: saline (control), (S,S)-(HO)2DEHSPM (25 mg/kg), (S,S)-(HO)2DEHSPM (50 mg/kg), and (S,S)-(HO)2DEHSPM (100 mg/kg) daily (QD) for 4 to 6 weeks (wks).
Study 2: saline (control), (S,S)-(HO)2DEHSPM (25 mg/kg QD), (S,S)-(HO)2DEHSPM (25 mg/kg 3×/wk), (S,S)-(HO)2DEHSPM (15 mg/kg 3×/wk), and (S,S)-(HO)2DEHSPM (5 mg/kg 3×/wk) for 4 to 6 wks.
Study 3: saline (control), gemcitabine (GEM) (100 mg/kg 2×/wk, intraperitoneally), (S,S)-(HO)2DEHSPM (25 mg/kg 3×/wk), and (S,S)-(HO)2DEHSPM+GEM for 4 to 6 wks.

[2] = Phase 1a/1b study in combination with G and A, safety; format: in vivo, human; conditions: N=20
Procedure: G (1000 mg/m^2) and A (125 mg/m^2) were administered intravenously on Days 1, 8, and 15 of each cycle. […] PK was evaluated on day 1 of cycle 1. Efficacy was assessed by CA19-9 levels, objective response was assessed by RECIST criteria, progression-free survival (PFS) and overall survival (OS).
This is a multicenter, open label, Phase 1a/1b study to evaluate to evaluate the safety, tolerability, pharmacokinetics and efficacy of (S,S)-(HO)2DEHSPM when administered in combination with G and A as first-line therapy in pancreatic cancer patients previously untreated for metastatic disease. The objective was to determine a recommended Phase 2 dose. Using a modified 3+3 dose escalation scheme, cohorts of subjects were dosed with subcutaneous injections of (S,S)-(HO)2DEHSPM at 0.2, 0.4 or 0.6 mg/kg days 1-5 of each 28-day cycle. Gemcitabine (1000 mg/m^2) and A (125 mg/m^2) were administered intravenously on Days 1, 8, and 15 of each cycle. […] PK was evaluated on day 1 of cycle 1. Efficacy was assessed by objective response rate (ORR) using RECIST criteria and by changes in CA19-9 levels. Subjects were treated until disease progression or the development of dose-limiting toxicity. Based upon initial safety findings and preliminary signals of efficacy, the protocol was amended to evaluate progression-free survival (PFS) and overall survival (OS) and expand the study to up to 36 subjects at the recommended Phase 2 dose. To date, 20 subjects were enrolled in cohorts 1-3 and evaluated for dose limiting toxicity and early signals of efficacy.

PDA = conditions: pivotal trials; cited from earlier work

Row | Compound | decreases in body weight ([1]; 4 to 6 wks) | decreases in pancreas weight ([1]; compared with controls) | decreases in tumor volume ([1]; compared with controls) | Grade ≥3 Elevated LFTs related to the named study medication (subjects) [2] | DCR, historical rate (PDA) | ORR, historical rate (PDA)
1 | Nc1ccn([C@@H]2O[C@H](CO)[C@@H](O)C2(F)F)c(=O)n1 [GEM, gemcitabine, reference compound] | 18.7% | 24.7% | 37.8% | 1 (G) | – | –
2 | FOLFIRINOX | – | – | – | – | 70% | 32%

From patent publication US20230064990A1, “DOSING REGIMENS AND METHODS FOR TREATING CANCER” (Panbela Therapeutics, Inc., priority 2020, published 2023)
